Publication PMC4710893 (ACS Combinatorial Science, 2015)
Values joined by “and” are separate entries in the source; they are usually repeats but may differ in a detail not shown here. Equal values may be shown once.

What was measured:
[1] = target: T1, K-Ras G12V (Homo sapiens, UniProt P01116, G12V); test: FA-based competition assay with DCAI; type: binding
[2] = target: K-Ras; settings: read-out: KD, DCAI binding to K-Ras; cited from earlier work
[3] = system: H1299 lung cancer cell line; test: MTT cell viability assay, H1299; type: cell-based, human; settings: H1299 (Q61K N-Ras), 24 h
[4] = system: H1299 cells; test: Cellular uptake by flow cytometry; type: cell-based, human
[5] = system: H1299 cells; test: Live-cell confocal microscopy of internalization; type: cell-based, human; settings: H1299, 5 μM FITC-labeled peptide, 2 h
[6] = system: p-MEK; test: Immunoblot of MEK phosphorylation in H1299 cells; type: cell-based, human; settings: H1299, 0-18 μM for 12 h, EGF 50 ng/mL 10 min
[7] = target: T1, K-Ras G12V; test: Fluorescence anisotropy; type: binding
[8] = system: H441 human lung cancer cells; test: MTT cell viability assay, H441; type: cell-based; settings: 0-40 μM
[9] = system: p-Akt at Thr308; test: Immunoblot of Akt phosphorylation in H1299 cells; type: cell-based, human; settings: H1299, 0-18 μM for 12 h, EGF 50 ng/mL 10 min

Compound	IC50 [1] [µM]	Kd [2]	LD50 [3] [µM]	cell entry efficiency, fold lower than cFΦR4 ([4]; H1299, 5 μM FITC-labeled peptide, 2 h) [fold]	cell permeability ([4]; tested for cellular uptake)	internalization / intracellular distribution [5]	reduction of EGF-induced p-MEK level [6]	lower affinity than peptide 49 ([7]; K-Ras G12V, peptide lacking the DCAI moiety) [fold]	Kd ([7]; read-out: KDapp, FA, FITC-labeled peptide 100 nM, K-Ras G12V as purified from E. coli, mixture of GTP- and GDP-bound forms) [µM]	reduction in cell viability [8]	reduction of EGF-induced p-Akt level [9]
Cc1[nH]c2cc(Cl)cc(Cl)c2c1CCN [DCAI, 4,6-dichloro-2-methyl-3-aminoethylindole]	840 ± 220	1100 µM and ~1100 µM	–	–	–	–	–	–	–	–	–
bicyclo [Tm-Ala-leu-Phe-Arg-asn-Pra-Ile-Asp-Lys-Phe-Nal-Arg-Arg-Arg-Arg-Dap]-Lys [peptide 54]	–	–	> 40	~3	readily cell permeable	largely similar intracellular distribution	no effect	~80	17 ± 11	significant reduction in cell viability only at the highest inhibitor concentration tested	no effect
